In PMC9127117, “Towards discovery of inhibitors of the undecaprenyl-pyrophosphate phosphatase BacA by virtual high-throughput screening” (Computational and Structural Biotechnology Journal, 2022):
Entries after “also recorded” stand apart in the source; their conditions may differ.

Assays:
[1] = test system: DMEG9 strain, alias BWbacA-single; assay: Growth inhibition in 2YT liquid medium; type: cell-based, E. coli; settings: PAP2-depleted DMEG9; 500 µM compound
Experimental: (§1) For compounds displaying inhibitory activity on BacA catalysis, their antibacterial activity was tested on different E. coli strains by monitoring bacterial growth in the presence of compounds (125, 250 and 500 µM). One colony was cultured in 10 ml of 2YT liquid medium and incubated at 37℃ for 6 h. The absorbance of the culture at 600 nm (A600) was measured to prepare a bacterial suspension in 2YT liquid medium at 15.10^6 CFU/ml (A600 = 1 corresponds to 3.10^8 CFU/ml). The bacterial suspension (200-µl) was then grown on 96-well plates in the presence or not of compounds (5-µl), which was added from a stock solution prepared in DMSO. Negative controls were then performed by growing the cells without inhibitors in 2YT medium and in 2YT medium supplemented with 2.5% of DMSO. The plates were incubated at 37℃ overnight with A600 measurements every 10 min using a Tecan F200 PRO microplate reader (iControl software).
(§2) Two compounds, 3 and 5, were assessed for antibacterial activity using the broth microdilution method against the E. coli BW25113 wild type strain. […] Considering the plurality of C55-PP phosphatases in E. coli, the inhibition of BacA may not induce growth inhibition as long as the PAP2 enzymes (PgpB, YbjG, and LpxT) are functional. Consequently, compounds 3 and 5 were tested against a BW25113 variant in which the PAP2 enzymes were depleted (DMEG9 strain, alias BWbacA-single). […]

[2] = test system: BWbacA-singleΔtolC strain carrying the empty vector (pTRCH30); assay: Growth inhibition, control strain carrying the empty vector; type: cell-based, E. coli; settings: 500 µM compound
Experimental: as §1
(§3) To further assess the specificity of compounds 3 and 5 with respect to BacA, they were tested against the strain depleted of both TolC and PAP2 but overexpressing an ectopic copy of the bacA gene on a plasmid.

[3] = test system: E. coli BW25113 wild type strain; assay: Growth inhibition in 2YT liquid medium; type: cell-based; settings: 500 µM compound
Experimental: as §1, §2

BWΔtolC strain = assay: Growth inhibition in 2YT liquid medium (off-target activity); type: cell-based, E. coli
Experimental: (§4) Bacteria were grown in 2YT broth supplemented, when required, with ampicillin or kanamycin at concentrations of 100 and 50 µg/ml, respectively. The BWΔtolC strain was obtained from the Keio collection. The BWΔbacAΔtolC and BWbacA-singleΔtolC were generated by P1 transduction of the ΔtolC::Kan^R cassette from BWΔtolC strain to BWΔbacA and DMEG9 recipient strains, respectively. The strains S. aureus RN4220 and S. pneumoniae R6 were used to evaluate the antibacterial activity of certain compounds. S. aureus was grown on BHI (Brain Heart Infusion) broth and S. pneumoniae was grown on Colombia broth supplemented with 5% horse blood.
as §1

[4] = test system: BWbacA-singleΔtolC strain; assay: Growth inhibition / MIC in 2YT liquid medium; type: cell-based, E. coli; settings: for MIC: BWbacA-singleΔtolC strain
Experimental: as §4, §1

PgpB = target: T1, PgpB (Escherichia coli, UniProt P0A924); assay: C55-PP phosphatase assay of PgpB; type: biochemical, E. coli; settings: 100 µM compound; data not shown
T1 construct: made in house
T1 sequence (P0A924 whole entry): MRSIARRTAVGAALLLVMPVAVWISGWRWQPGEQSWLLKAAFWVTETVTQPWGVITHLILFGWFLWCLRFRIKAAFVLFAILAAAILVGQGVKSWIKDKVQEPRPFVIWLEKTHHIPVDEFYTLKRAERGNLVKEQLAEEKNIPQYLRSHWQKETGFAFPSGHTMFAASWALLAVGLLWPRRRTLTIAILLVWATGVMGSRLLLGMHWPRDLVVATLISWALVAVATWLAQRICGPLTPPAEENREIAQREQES
Experimental: C43(DE3) cells carrying pTrcBac30 plasmid were used for the expression of N-terminally His6-tagged BacA (His6-BacA) protein from E. coli. Cells were grown in 2YT-ampicillin at 37 °C and when the OD600 reached 0.9, the temperature of the culture was decreased to 22 °C and protein expression was induced by addition of 1 mM IPTG. Incubation was continued overnight at 22 °C and bacteria were harvested in the cold and washed in a buffer containing 20 mM Tris-HCl, pH 7.4, 0.4 M NaCl, 10% glycerol and 10 mM β-mercaptoethanol (buffer A). The cells were disrupted by three successive passages through a French press and the suspension was centrifuged at 200,000× g, 4 °C for 45 min. The pellet of membranes was washed with buffer A. The membranes were resuspended in buffer A supplemented by 2% DDM detergent. […] Fractions containing the BacA protein were subjected to an additional gel-filtration purification step on Superdex 200 (HiLoadTM 16/600 SuperdexTM 200) equilibrated in 0.1% DDM-containing buffer A. 1-ml fractions were collected and analysed by SDS-PAGE. […]
The C55-PP phosphatase activity of BacA was assessed by measuring the percentage of transformation of [^14C]C55-PP into [^14C]C55-P upon incubation with BacA by TLC analysis. […] The radioactive spots were located and quantified with a radioactivity scanner. […] The C55-PP phosphatase activity of PgpB was measured as described for BacA.

[5] = test system: BWbacA-singleΔtolC strain overexpressing an ectopic copy of the bacA gene on a plasmid; assay: Growth inhibition upon bacA overexpression; type: cell-based, E. coli; settings: bacA overexpressed in trans; 500 µM compound
Experimental: as §1, §3

BWΔbacAΔtolC strain = assay: Growth inhibition in 2YT liquid medium; type: cell-based, E. coli; settings: BacA and TolC depleted; 500 µM compound
Experimental: as §4
For compounds displaying inhibitory activity on BacA catalysis, their antibacterial activity was tested on different E. coli strains by monitoring bacterial growth in the presence of compounds (125, 250 and 500 µM). One colony was cultured in 10 ml of 2YT liquid medium and incubated at 37℃ for 6 h. The absorbance of the culture at 600 nm (A600) was measured to prepare a bacterial suspension in 2YT liquid medium at 15.10^6 CFU/ml (A600 = 1 corresponds to 3.10^8 CFU/ml). […] The plates were incubated at 37℃ overnight with A600 measurements every 10 min using a Tecan F200 PRO microplate reader (iControl software). […]

In the case of `O=C(O)c1csc(S(=O)(=O)Nc2ccc3sccc3c2)c1` [Compound 3], the growth inhibition [1] is reported as “no growth inhibition”, the growth inhibition [2] is reported as “total growth inhibition” and the growth inhibition [3] is reported as “No growth inhibition”. For the same compound, the “increase of the doubling time of cells” value (BWΔtolC strain; BWΔtolC, 500 µM compound) was 3 fold, the growth inhibition (BWΔtolC strain; TolC-depleted BWΔtolC, 500 µM compound) was “moderate inhibition; also recorded: significant growth inhibition” and the Off-target activity (BWΔtolC strain; antibacterial activity against BWΔtolC) was “Yes”. For the same compound, the MIC [4] was 169 µg/mL, the MIC ([4]; 125, 250 and 500 µM tested) was 500 µM and the “class of antibacterial activity (Figure S2)” value ([4]; BWΔtolC and BWbacA-singleΔtolC strains, 250 and 500 µM) was “antibacterial activity on both strains”. For the same compound, the growth inhibition ([4]; TolC/PAP2-depleted BWbacA-singleΔtolC, 500 µM compound) was “complete growth inhibition; also recorded: total growth inhibition”, the “inhibition of PgpB” value (PgpB) was “not inhibited” and the “growth inhibition upon bacA overexpression” value [5] was “partially alleviated growth inhibition; also recorded: susceptibility was decreased at the level observed with the strain depleted of TolC alone”. For the same compound, the “growth inhibition (BacA-independent activity)” value (BWΔbacAΔtolC strain) was “moderate inhibition; also recorded: significant, although moderate, BacA-independent activity”.
